Laboratory results published in ChEMBL document CHEMBL3085661, “Fragment-based approach to the design of 5-chlorouracil-linked-pyrazolo[1,5-a][1,3,5]triazines as thymidine phosphorylase inhibitors” (Eur J Med Chem, 2013).
Where a name gives a salt, the structure may show the parent alone.

system: not listed separately; assay: Cytotoxicity against human MDA-MB-231 cells assessed as cell viability at 100 uM by MTT assay relative to control; type: cell-based; conditions: read-out: Activity

Row | SMILES | viability at 100 µM [%]
1 | O=c1[nH]c(CSc2nc3c(-c4ccc(S(F)(F)(F)(F)F)cc4)cnn3c(=O)[nH]2)c(Cl)c(=O)[nH]1 | 67

biological target: T1, Thymidine phosphorylase (Escherichia coli K-12, UniProt P07650); assay: Mixed-type inhibition of Escherichia coli recombinant thymidine phosphorylase using thymidine as substrate by Lineweaver-Burk plot analysis; conditions: not given
T1 sequence (P07650 whole entry): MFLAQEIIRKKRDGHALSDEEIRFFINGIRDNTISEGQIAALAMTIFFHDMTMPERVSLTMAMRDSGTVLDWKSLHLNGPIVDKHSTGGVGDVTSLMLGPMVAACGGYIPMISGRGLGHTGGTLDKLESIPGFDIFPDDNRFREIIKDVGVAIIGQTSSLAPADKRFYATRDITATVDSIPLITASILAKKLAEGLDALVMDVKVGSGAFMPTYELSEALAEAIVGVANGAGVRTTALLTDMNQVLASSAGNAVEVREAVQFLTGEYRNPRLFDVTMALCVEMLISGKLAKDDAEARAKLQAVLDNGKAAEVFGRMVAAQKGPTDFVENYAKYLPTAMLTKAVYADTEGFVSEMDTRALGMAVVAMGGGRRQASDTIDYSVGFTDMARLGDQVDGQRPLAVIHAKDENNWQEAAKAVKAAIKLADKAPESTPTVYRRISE

Row | SMILES | Ki [µM]
2 | O=c1[nH]c(CSc2nc3c(-c4ccc(S(F)(F)(F)(F)F)cc4)cnn3c(=O)[nH]2)c(Cl)c(=O)[nH]1 | 0.44

biological target: T1, Thymidine phosphorylase; assay: Inhibition of Escherichia coli recombinant thymidine phosphorylase using thymidine as substrate after 4 to 20 mins by UV spectrophotometry; conditions: not given

Row | SMILES | IC50 [µM]
3 | CC(C)(C)c1ccc(-c2cnn3c(=O)[nH]c(SCc4[nH]c(=O)[nH]c(=O)c4Cl)nc23)cc1 | 1.8
4 | COc1ccc(-c2cnn3c(=O)[nH]c(SCc4[nH]c(=O)[nH]c(=O)c4Cl)nc23)cc1 | 21.3
5 | CCOc1ccc(-c2cnn3c(=O)[nH]c(SCc4[nH]c(=O)[nH]c(=O)c4Cl)nc23)cc1 | 12
6 | O=c1[nH]c(CSc2nc3c(-c4ccc(I)cc4)cnn3c(=O)[nH]2)c(Cl)c(=O)[nH]1 | 0.61
7 | O=c1[nH]c(CSc2nc3c(-c4ccc(S(F)(F)(F)(F)F)cc4)cnn3c(=O)[nH]2)c(Cl)c(=O)[nH]1 | 0.36
8 | O=c1[nH]c(CSc2nc3cc(-c4ccc(C(F)(F)F)cc4)nn3c(=O)[nH]2)c(Cl)c(=O)[nH]1 | 2.1
9 | Cc1ccc(-c2cc3nc(SCc4[nH]c(=O)[nH]c(=O)c4Cl)[nH]c(=O)n3n2)cc1 | 9.8
10 | CC(C)(C)c1ccc(-c2cc3nc(SCc4[nH]c(=O)[nH]c(=O)c4Cl)[nH]c(=O)n3n2)cc1 | 1.5
11 | COc1ccc(-c2cc3nc(SCc4[nH]c(=O)[nH]c(=O)c4Cl)[nH]c(=O)n3n2)cc1 | 11.8
12 | CCOc1ccc(-c2cc3nc(SCc4[nH]c(=O)[nH]c(=O)c4Cl)[nH]c(=O)n3n2)cc1 | 10
13 | O=c1[nH]c(CSc2nc3cc(-c4ccccc4)nn3c(=O)[nH]2)c(Cl)c(=O)[nH]1 | 13
14 | Cc1cnn2c(=O)[nH]c(SCc3[nH]c(=O)[nH]c(=O)c3Cl)nc12 | 35.3
15 | O=c1[nH]c(CSc2nc3c(Cl)cnn3c(=O)[nH]2)c(Cl)c(=O)[nH]1 | 49.8
16 | O=c1[nH]c(CSc2nc3c(Br)cnn3c(=O)[nH]2)c(Cl)c(=O)[nH]1 | 40
17 | O=c1[nH]c(CSc2nc3c(I)cnn3c(=O)[nH]2)c(Cl)c(=O)[nH]1 | 30.8
18 | N#Cc1cnn2c(=O)[nH]c(SCc3[nH]c(=O)[nH]c(=O)c3Cl)nc12 | 38.8
19 | CCOC(=O)c1cnn2c(=O)[nH]c(SCc3[nH]c(=O)[nH]c(=O)c3Cl)nc12 | 47.2

Row | SMILES | IC50 [µM]
20 | O=c1[nH]c(CSc2nc3c(-c4ccccc4)cnn3c(=O)[nH]2)c(Cl)c(=O)[nH]1 | 9.7
21 | O=c1[nH]c(CSc2nc3c(-c4ccc(F)cc4)cnn3c(=O)[nH]2)c(Cl)c(=O)[nH]1 | 8
22 | O=c1[nH]c(CSc2nc3c(-c4ccc(Cl)cc4)cnn3c(=O)[nH]2)c(Cl)c(=O)[nH]1 | 2.8
23 | O=c1[nH]c(CSc2nc3c(-c4ccc(Br)cc4)cnn3c(=O)[nH]2)c(Cl)c(=O)[nH]1 | 1.2
24 | O=c1[nH]c(CSc2nc3c(-c4ccc(C(F)(F)F)cc4)cnn3c(=O)[nH]2)c(Cl)c(=O)[nH]1 | 1.3
25 | Cc1ccc(-c2cnn3c(=O)[nH]c(SCc4[nH]c(=O)[nH]c(=O)c4Cl)nc23)cc1 | 7.3
26 | CCOc1ccc(-c2cc3[nH]c(=S)[nH]c(=O)n3n2)cc1 | 6.1
27 | N#Cc1cnn2c(=O)[nH]c(=S)[nH]c12 | > 100
28 | CCOC(=O)c1cnn2c(=O)[nH]c(=S)[nH]c12 | > 100
29 | O=c1[nH]c(CSc2nc3ccnn3c(=O)[nH]2)c(Cl)c(=O)[nH]1 | 67.8
30 | Cc1cc2nc(SCc3[nH]c(=O)[nH]c(=O)c3Cl)[nH]c(=O)n2n1 | 55.5
31 | CC(C)(C)c1cc2nc(SCc3[nH]c(=O)[nH]c(=O)c3Cl)[nH]c(=O)n2n1 | 51.2
32 | O=c1[nH]c(CSc2nc3cc(C(F)(F)F)nn3c(=O)[nH]2)c(Cl)c(=O)[nH]1 | 31
33 | O=c1[nH]c(CSc2nc3cc(-c4ccc(F)cc4)nn3c(=O)[nH]2)c(Cl)c(=O)[nH]1 | 22.6
34 | O=c1[nH]c(CSc2nc3cc(-c4ccc(Cl)cc4)nn3c(=O)[nH]2)c(Cl)c(=O)[nH]1 | 10.3
35 | O=c1[nH]c(CSc2nc3cc(-c4ccc(Br)cc4)nn3c(=O)[nH]2)c(Cl)c(=O)[nH]1 | 6.2
36 | N=C1CCCN1Cc1[nH]c(=O)[nH]c(=O)c1Cl [TIPIRACIL HYDROCHLORIDE] | 0.0027

biological target: T1, Thymidine phosphorylase; assay: Noncompetitive inhibition of GST-tagged Escherichia coli recombinant thymidine phosphorylase expressed in Escherichia coli using thymidine as substrate after 20 to 60 mins by HPLC analysis; conditions: not given

Row | SMILES | IC50 [µM]
37 | Oc1ncnc2c1ncn2[C@@H]1O[C@H](COC(c2ccccc2)(c2ccccc2)c2ccccc2)[C@@H](O)[C@H]1O | 44
